From patent publication US11155556B2, “Pyrimido-diazepinone kinase scaffold compounds and methods for treating PI3K-mediated disorders” (DANA-FARBER CANCER INSTITUTE, INC., priority 2016, dated 2021) come the findings set out here.

The structures appear in SMILES notation. Where only a bound is given, the exact number is not on record here.

One experiment concerns the target PI3K-δ (Homo sapiens (Human), UniProt O00329). Put plainly: ADAPTA kinase assay, PI3K-δ. The format is biochemical. Conditions: ADAPTA assay format; for IC50: ATP at Km. As to the method:
(§1) The enzymatic activities against PI3K-α, PI3K-β, PI3K-γ and PI3K-δ were tested in ADAPTA assays. Activity against […] were tested in Z′-Lyte assays. All assays were performed with ATP concentrations of Km for each kinase. BRD4_1 binding was tested using an AlphaScreen assay. All protocols are available from Life Technologies.
(§2) The enzymatic activities against PI3K-α, PI3K-γ and PI3K-δ were tested in ADAPTA assays. Activity against […] were tested in Z′-Lyte assays. All assays were performed with ATP concentrations of Km for each kinase. BRD4_1 binding was tested using an AlphaScreen assay. All the protocols are available from Life Technologies.

The target in a further experiment is PI3K-γ (Homo sapiens (Human), UniProt P48736). The experiment can be described thus: ADAPTA kinase assay, PI3K-γ. The experiment is classed as biochemical. The conditions noted are these: ADAPTA assay format; for IC50: ATP at Km. On the procedure:
as §1, §2

For another experiment, the target named is Aurora B (Homo sapiens (Human), UniProt Q96GD4). Put plainly: Z'-LYTE kinase assay, Aurora B. The format is biochemical. The conditions noted are these: Z'LYTE assay format, ATP at Km. On the procedure:
as §1, §2

The target in another experiment is Aurora A (Homo sapiens (Human), UniProt O14965). Put plainly: Z'-LYTE kinase assay, Aurora A. Conditions: Z'LYTE assay format, ATP at Km. The format is biochemical. As to the method: The enzymatic activities against PI3K-α, PI3K-β, PI3K-γ and PI3K-δ were tested in ADAPTA assays. […] All assays were performed with ATP concentrations of Km for each kinase. BRD4_1 binding was tested using an AlphaScreen assay. All protocols are available from Life Technologies.
The enzymatic activities against PI3K-α, PI3K-γ and PI3K-δ were tested in ADAPTA assays. […] All assays were performed with ATP concentrations of Km for each kinase. BRD4_1 binding was tested using an AlphaScreen assay. All the protocols are available from Life Technologies.

In experiment [1] the test system is patient-derived primary CLL cells. The experiment can be described thus: CellTiter-Glo cell viability assay, patient-derived primary CLL cells. Conditions: Homo sapiens. The format is cell-based. On the procedure: The CellTiter-Glo assay (Promega) was used to determine the viability of cells from chronic lymphocytic leukemia (CLL) patients at baseline (primary human patient derived CLL cells), upon IgM stimulation, and after drug treatment. IgM stimulation was conducted using AffiniPure F(ab′)2 Fragment Goat Anti-Human IgM (Jackson ImmunoResearch). Cell viability results after drug treatment are presented in FIG. 7A (IgM-stimulated cells) and FIG. 7B (PBS control).
(In general: ATP-based viability assays read luminescence as a measure of living cells.)

Experiment [2] has as its system PI3K-δ signaling (HMEC expressing CA-p110δ). The experiment can be described thus: PI3K cellular signaling assay in isogenic HMEC lines (Western blot). The format is cell-based. The conditions noted are these: 10 nM concentration, FIG. 4C. As to the method:
HMEC derivative cell lines were serum-starved for 3 hours, then treated with the indicated compounds at 0.01 μM, 0.1 μM, or 1 μM for 1 h. Cell lysates were prepared and subjected to Western blot assays with the indicated antibodies. Du, Duvelisib; Id, Idelalisib.
PI3K cellular signaling assays were performed as previously described (Reference 18).
HMEC derivative cells were cultured as described previously (Ni J, Liu Q, Xie S, et al. Functional characterization of an isoform-selective inhibitor of PI3K-p110beta as a potential anticancer agent. Cancer discovery. 2012; 2(5):425-433).
Western blot analysis was performed as previously described (Reference 1). Anti-phospho-AKT (Thr308) (#4056), anti-phospho-AKT (Ser473) (#4060), anti-AKT (#9272), anti-phospho-S6 ribosomal protein (Ser235/236) (#2211), anti-S6 ribosomal protein (#2217) antibodies were all from Cell Signaling Technology (Hanover, Mass.), and anti-α-tubulin antibody was from Sigma (Rockford, Ill.).
For orientation: Immunoblotting shows a protein as a band on a membrane.

Another experiment deals with MV4:11 cells. The experiment can be described thus: CellTiter-Glo cell viability assay, MV4:11. The format is cell-based. Conditions: Homo sapiens, MV4-11, 72 h, 3 days, average of three replicates. As to the method:
(§3) Cell viability assays were performed using CellTiter-Glo (Promega). Cells were grown in RPMI-10% FBS medium. 600 cells per well were seeded in a 96-well plate and then treated with eight doses of each compound in 3-fold dilution steps ranging from 10 um to 0.0046 uM for 3 days. Wells were imaged using a luminometer. IC50 were determined using Prism software. Data was normalized to a dimethyl sulfoxide (DMSO)-only control.

The next experiment deals with Molm14 cells. The experiment can be described thus: CellTiter-Glo cell viability assay, Molm14. Conditions: Homo sapiens, MOLM-14, 72 h, 3 days, average of three replicates. The experiment is classed as cell-based. As to the method:
as §3

The subject of the next experiment is MOLT4 cells. The experiment can be described thus: CellTiter-Glo proliferation / cell viability assay, MOLT4. The experiment is classed as cell-based. Conditions: Homo sapiens, MOLT-4, 72 h, 3 days, average of three replicates. On the procedure: (§4) Proliferation assays were conducted in Jurkat or MOLT4 cell lines using Cell Titer Glo as described in product manual.
as §3

For the next experiment, the system named is Loucy cells. Put plainly: CellTiter-Glo cell viability assay, Loucy. The format is cell-based. Conditions: 72 h, 3 days, average of three replicates. As to the method:
as §3

The subject of another experiment is Jurkat cells. The experiment can be described thus: CellTiter-Glo proliferation / cell viability assay, Jurkat. The conditions noted are these: Homo sapiens, 72 h, 3 days, average of three replicates. The experiment is classed as cell-based. As to the method: as §4, §3
The next experiment has as its target PI3K-β (Homo sapiens (Human), UniProt P42338). Put plainly: ADAPTA kinase assay, PI3K-β. The experiment is classed as biochemical. The conditions noted are these: ADAPTA assay format, ATP at Km. On the procedure:
as §1, §2

The target in the next experiment is PI3K-α (Homo sapiens (Human), UniProt P42336). The experiment can be described thus: ADAPTA kinase assay, PI3K-α. The format is biochemical. The conditions noted are these: ADAPTA assay format, ATP at Km. As to the method: as §1, §2
Chain of PI3K-α (P42336 whole entry): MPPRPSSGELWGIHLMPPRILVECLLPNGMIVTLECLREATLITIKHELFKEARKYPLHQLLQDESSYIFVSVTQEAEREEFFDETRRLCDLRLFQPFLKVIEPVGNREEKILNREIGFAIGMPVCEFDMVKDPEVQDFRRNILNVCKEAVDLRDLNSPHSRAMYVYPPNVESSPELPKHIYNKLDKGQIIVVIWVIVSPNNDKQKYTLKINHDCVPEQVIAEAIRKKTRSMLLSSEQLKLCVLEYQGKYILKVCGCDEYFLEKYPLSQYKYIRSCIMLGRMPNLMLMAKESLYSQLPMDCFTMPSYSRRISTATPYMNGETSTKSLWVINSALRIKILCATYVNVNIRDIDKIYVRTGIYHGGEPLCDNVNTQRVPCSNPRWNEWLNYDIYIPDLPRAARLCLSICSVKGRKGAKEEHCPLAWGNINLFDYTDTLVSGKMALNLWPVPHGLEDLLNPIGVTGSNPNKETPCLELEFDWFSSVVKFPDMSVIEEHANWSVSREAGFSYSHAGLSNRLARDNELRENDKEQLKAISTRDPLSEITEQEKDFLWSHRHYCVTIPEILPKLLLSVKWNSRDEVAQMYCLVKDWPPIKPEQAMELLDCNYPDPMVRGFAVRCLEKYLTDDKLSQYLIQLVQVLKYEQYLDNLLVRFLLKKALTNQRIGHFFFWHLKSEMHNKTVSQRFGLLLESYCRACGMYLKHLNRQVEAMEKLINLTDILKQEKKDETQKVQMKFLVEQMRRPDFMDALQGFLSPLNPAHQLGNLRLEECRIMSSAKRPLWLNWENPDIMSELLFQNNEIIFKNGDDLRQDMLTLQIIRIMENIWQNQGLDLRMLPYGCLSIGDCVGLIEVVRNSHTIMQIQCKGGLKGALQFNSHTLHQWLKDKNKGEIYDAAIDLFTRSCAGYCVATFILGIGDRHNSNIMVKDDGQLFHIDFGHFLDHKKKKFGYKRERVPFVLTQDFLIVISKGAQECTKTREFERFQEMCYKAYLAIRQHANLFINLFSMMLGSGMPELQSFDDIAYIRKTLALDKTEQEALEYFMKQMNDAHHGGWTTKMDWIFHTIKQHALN
Chain of PI3K-α (P27986 whole entry partner): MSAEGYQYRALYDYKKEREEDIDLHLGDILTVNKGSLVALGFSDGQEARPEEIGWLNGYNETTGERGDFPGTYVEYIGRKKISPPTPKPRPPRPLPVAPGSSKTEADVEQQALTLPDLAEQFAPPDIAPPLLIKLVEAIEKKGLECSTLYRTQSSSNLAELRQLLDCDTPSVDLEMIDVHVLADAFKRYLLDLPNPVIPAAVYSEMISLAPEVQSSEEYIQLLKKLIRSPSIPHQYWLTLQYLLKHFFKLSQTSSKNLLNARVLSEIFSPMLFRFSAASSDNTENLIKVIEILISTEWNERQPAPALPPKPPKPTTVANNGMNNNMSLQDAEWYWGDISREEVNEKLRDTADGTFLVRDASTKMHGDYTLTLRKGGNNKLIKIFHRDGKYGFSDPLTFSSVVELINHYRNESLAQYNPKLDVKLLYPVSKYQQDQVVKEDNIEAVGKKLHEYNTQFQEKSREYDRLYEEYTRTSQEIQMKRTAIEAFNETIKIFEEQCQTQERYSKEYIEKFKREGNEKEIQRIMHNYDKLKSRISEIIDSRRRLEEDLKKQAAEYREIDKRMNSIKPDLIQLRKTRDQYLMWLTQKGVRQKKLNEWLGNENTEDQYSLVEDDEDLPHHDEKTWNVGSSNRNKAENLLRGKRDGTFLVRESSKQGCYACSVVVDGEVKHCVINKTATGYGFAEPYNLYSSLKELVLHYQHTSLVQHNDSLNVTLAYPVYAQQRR

Chain of PI3K-γ (P48736 whole entry): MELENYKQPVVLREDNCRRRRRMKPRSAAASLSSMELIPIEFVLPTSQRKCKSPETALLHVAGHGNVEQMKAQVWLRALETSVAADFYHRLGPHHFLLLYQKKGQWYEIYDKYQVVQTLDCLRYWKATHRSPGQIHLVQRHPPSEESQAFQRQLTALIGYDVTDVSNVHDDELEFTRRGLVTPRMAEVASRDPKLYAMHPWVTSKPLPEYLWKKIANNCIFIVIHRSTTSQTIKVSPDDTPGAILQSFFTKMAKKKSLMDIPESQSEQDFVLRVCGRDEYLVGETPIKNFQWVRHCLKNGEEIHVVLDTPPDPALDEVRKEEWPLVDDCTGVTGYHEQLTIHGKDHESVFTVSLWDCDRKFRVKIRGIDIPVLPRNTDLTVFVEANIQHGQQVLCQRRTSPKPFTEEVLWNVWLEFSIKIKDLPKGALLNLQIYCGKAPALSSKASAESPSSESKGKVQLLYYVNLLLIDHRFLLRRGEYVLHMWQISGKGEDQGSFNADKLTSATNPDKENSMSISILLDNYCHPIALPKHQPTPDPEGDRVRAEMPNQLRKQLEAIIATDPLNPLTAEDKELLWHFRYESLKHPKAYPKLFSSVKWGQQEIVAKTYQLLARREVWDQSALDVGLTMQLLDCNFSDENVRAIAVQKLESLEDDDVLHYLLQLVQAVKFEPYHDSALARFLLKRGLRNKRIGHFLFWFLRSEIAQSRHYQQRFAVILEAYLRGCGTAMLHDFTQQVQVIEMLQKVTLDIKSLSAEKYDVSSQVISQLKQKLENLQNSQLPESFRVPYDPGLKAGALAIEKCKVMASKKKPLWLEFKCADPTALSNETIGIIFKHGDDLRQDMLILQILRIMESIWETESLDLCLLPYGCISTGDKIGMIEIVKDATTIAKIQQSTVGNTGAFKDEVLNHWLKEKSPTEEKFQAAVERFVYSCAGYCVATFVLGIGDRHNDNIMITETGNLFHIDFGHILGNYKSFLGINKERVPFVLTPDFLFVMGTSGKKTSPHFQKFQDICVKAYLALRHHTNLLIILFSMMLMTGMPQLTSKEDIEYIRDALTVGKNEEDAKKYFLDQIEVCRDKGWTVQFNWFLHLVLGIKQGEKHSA
Chain of Aurora B (Q96GD4 whole entry): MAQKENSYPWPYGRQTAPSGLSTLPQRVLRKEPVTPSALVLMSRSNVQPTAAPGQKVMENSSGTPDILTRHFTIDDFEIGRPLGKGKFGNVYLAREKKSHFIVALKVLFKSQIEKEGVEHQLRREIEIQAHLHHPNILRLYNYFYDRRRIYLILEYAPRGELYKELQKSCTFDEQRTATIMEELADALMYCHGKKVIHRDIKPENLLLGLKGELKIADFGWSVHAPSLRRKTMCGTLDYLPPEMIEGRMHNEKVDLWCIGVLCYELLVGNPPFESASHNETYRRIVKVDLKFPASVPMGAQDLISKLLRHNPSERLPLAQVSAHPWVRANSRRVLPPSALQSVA
Chain of Aurora A (O14965 whole entry): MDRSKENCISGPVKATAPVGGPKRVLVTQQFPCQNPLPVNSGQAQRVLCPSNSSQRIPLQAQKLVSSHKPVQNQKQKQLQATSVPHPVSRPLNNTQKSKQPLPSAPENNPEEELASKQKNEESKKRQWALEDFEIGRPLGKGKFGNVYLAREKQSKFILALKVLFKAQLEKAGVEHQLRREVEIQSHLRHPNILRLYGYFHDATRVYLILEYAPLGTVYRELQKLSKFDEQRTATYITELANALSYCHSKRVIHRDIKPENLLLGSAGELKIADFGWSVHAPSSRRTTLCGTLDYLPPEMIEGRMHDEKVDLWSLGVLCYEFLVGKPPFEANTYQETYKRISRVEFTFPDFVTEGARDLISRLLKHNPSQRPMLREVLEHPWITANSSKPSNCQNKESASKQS
Chain of PI3K-δ (O00329 whole entry): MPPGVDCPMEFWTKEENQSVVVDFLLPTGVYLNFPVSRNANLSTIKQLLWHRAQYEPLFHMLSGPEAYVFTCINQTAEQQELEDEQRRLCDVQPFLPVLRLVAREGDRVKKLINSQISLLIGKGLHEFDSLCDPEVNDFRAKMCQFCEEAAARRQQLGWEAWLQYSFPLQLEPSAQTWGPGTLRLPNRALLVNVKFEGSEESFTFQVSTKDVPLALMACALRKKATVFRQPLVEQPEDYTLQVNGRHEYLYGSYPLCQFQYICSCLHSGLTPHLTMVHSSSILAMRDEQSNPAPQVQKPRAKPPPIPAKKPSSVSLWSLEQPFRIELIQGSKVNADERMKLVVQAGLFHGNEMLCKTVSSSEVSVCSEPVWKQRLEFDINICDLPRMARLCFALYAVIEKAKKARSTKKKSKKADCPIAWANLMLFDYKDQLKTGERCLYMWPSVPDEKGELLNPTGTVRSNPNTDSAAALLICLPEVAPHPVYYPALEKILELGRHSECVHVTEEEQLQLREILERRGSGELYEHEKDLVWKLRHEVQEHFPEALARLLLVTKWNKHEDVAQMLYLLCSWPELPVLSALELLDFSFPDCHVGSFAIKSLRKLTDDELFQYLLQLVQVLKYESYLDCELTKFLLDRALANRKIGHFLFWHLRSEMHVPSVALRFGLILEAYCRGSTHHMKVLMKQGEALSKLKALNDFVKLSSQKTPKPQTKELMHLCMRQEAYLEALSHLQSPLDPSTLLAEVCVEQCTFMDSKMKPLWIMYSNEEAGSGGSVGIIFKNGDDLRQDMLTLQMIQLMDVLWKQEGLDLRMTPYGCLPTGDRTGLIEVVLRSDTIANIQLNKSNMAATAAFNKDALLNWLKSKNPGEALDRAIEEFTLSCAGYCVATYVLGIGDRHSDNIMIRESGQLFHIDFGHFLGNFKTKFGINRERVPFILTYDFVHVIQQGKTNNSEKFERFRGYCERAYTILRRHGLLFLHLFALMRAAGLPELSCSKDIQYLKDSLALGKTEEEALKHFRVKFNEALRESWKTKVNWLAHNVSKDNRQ
Chain of PI3K-δ (P27986 whole entry partner): as the sequence (P27986 whole entry partner) above

The IC50 is the midpoint of a concentration-inhibition curve. A low value points to greater potency in that assay. For `C=CC(=O)NC1CCN(S(=O)(=O)c2ccc(Nc3ncc4c(n3)N(C)c3ccc(C)cc3C(=O)N4C)cc2)CC1` [Compound 4, N-(1-((4-((5,8,11-trimethyl-6-oxo-6,11-dihydro-5H-benzo[e]pyrimido[5,4-b][1,4]diazepin-2-yl)amino)phenyl)sulfonyl)piperidin-4-yl)acrylamide], the results for the half-maximal inhibitory concentration (IC50) at PI3K-δ and against PI3K-γ were 48.6 nM and 123 nM, respectively.
Take `C=CC(=O)Nc1ccc(NS(=O)(=O)c2ccc(Nc3ncc4c(n3)N(C)c3ccc(C)cc3C(=O)N4C)cc2)cc1` [Compound 6, N-(4-((4-((5,8,11-trimethyl-6-oxo-6,11-dihydro-5H-benzo[e]pyrimido[5,4-b][1,4]diazepin-2-yl)amino)phenyl)sulfonamido)phenyl)acrylamide]: the concentration for half-maximal inhibition (IC50) came to 80 nM against Aurora B, 49 nM at Aurora A, 306 nM against PI3K-δ and 96 nM on PI3K-γ.
As for `C=CC(=O)N1CCN(S(=O)(=O)c2ccc(Nc3ncc4c(n3)N(C)c3ccc(C)cc3C(=O)N4C)cc2)CC1` [Compound 2, 2-((4-((4-acryloylpiperazin-1-yl)sulfonyl)phenyl)amino)-5,8,11-trimethyl-5,11-dihydro-6H-benzo[e]pyrimido[5,4-b][1,4]diazepin-6-one], the concentration for half-maximal inhibition (IC50) against Aurora B worked out at 16 nM; on Aurora A it was 23 nM; on PI3K-δ, 112 nM; against PI3K-γ, 231 nM.
Regarding `Cc1ccc2c(c1)C(=O)N(C)c1cnc(Nc3cccc(S(=O)(=O)N4CCN(C)CC4)c3)nc1N2C` [Compound 10], the figures for the half-maximal inhibitory concentration (IC50) on PI3K-δ and on PI3K-γ were 558 nM and 50.7 nM, respectively.
For `C=CC(=O)Nc1cccc(NS(=O)(=O)c2cccc(Nc3ncc4c(n3)N(C)c3ccc(C)cc3C(=O)N4C)c2)c1` [Compound 7, N-(3-((3-((5,8,11-trimethyl-6-oxo-6,11-dihydro-5H-benzo[e]pyrimido[5,4-b][1,4]diazepin-2-yl)amino)phenyl)sulfonamido)phenyl)acrylamide], the half-maximal inhibitory concentration (IC50) came out at 130 nM against Aurora B, 188 nM on Aurora A, 328 nM on PI3K-δ and 39 nM at PI3K-γ.
`C=CC(=O)Nc1cccc(NS(=O)(=O)c2ccc(Nc3ncc4c(n3)N(C)c3ccc(C)cc3C(=O)N4C)cc2)c1` [Compound 8, N-(3-((4-((5,8,11-trimethyl-6-oxo-6,11-dihydro-5H-benzo[e]pyrimido[5,4-b][1,4]diazepin-2-yl)amino)phenyl)sulfonamido)phenyl)acrylamide]: the IC50 is 343 nM on PI3K-δ and 438 nM at PI3K-γ.
The compound `CC[C@H](Nc1ncnc2[nH]cnc12)c1nc2cccc(F)c2c(=O)n1-c1ccccc1` [Idelalisib, reference compound] showed an IC50 in experiment [1] above 10000 nM. Besides, the “inhibition of PI3K-δ signaling (AKT and S6RP phosphorylation)” value in [2] is “comparable inhibition of, and selectivity for, PI3K-δ signaling”. Also, at PI3K-γ (FIG. 4B), the “potency in the PI3K-γ assay compared with clinical compounds” value was “much less potent”.
Regarding `Cc1ccc2c(c1)C(=O)N(C)c1cnc(Nc3ccc(S(N)(=O)=O)cc3)nc1N2C` [Compound 14], the IC50 on Aurora B is 4 nM; against Aurora A it was 16 nM; against PI3K-δ, 20 nM; on PI3K-γ it was 30 nM.
Consider `CN1C(=O)c2ccccc2N(C)c2nc(Nc3cccc(S(N)(=O)=O)c3)ncc21` [Compound 17], for which the half-maximal inhibitory concentration (IC50) was found to be 4 nM on Aurora B, 2 nM against Aurora A, 4 nM at PI3K-δ and 4 nM against PI3K-γ.
On to `Cc1ccc2c(c1)C(=O)N(C)c1cnc(Nc3ccc(S(=O)(=O)N4CCN(C)CC4)cc3)nc1N2C` [Compound 11, 5,8,11-trimethyl-2-((4-((4-methylpiperazin-1-yl)sulfonyl)phenyl)amino)-5,11-dihydro-6H-benzo[e]pyrimido[5,4-b][1,4]diazepin-6-one], for which the 50% inhibitory concentration (IC50) against PI3K-δ came to 3250 nM; against PI3K-γ, 2610 nM.
Regarding `CN1C(=O)c2ccccc2N(C)c2nc(Nc3ccc(S(N)(=O)=O)cc3)ncc21` [Compound 16], the IC50 at Aurora B stood at 13.3 nM; at Aurora A, 4.8 nM; on PI3K-δ it was 14.5 nM; against PI3K-γ it was 49 nM.
`Cc1cc(S(N)(=O)=O)ccc1Nc1ncc2c(n1)N(C)c1ccccc1C(=O)N2C` [Compound 18]: the IC50 was found to be 9360 nM against Aurora B, 4850 nM against Aurora A, 2380 nM on PI3K-δ and 822 nM on PI3K-γ.
Turning to `Cc1ccc2c(c1)C(=O)N(C)c1cnc(Nc3cccc(S(N)(=O)=O)c3)nc1N2C` [Compound 15, 3-((5,8,11-trimethyl-6-oxo-6,11-dihydro-5H-benzo[e]pyrimido[5,4-b][1,4]diazepin-2-yl)amino)benzenesulfonamide], the concentration for half-maximal inhibition (IC50) is 108 nM at PI3K-δ and 75.9 nM on PI3K-γ.
`C=CC(=O)NC1CCN(S(=O)(=O)c2cccc(Nc3ncc4c(n3)N(C)c3ccc(C)cc3C(=O)N4C)c2)CC1` [Compound 3, N-(1-((3-((5,8,11-trimethyl-6-oxo-6,11-dihydro-5H-benzo[e]pyrimido[5,4-b][1,4]diazepin-2-yl)amino)phenyl)sulfonyl)piperidin-4-yl)acrylamide]: the IC50 on Aurora B stood at 631 nM; on Aurora A it was 355 nM; at PI3K-δ, 122 nM; at PI3K-γ, 20 nM.
For the compound `C[C@H](Nc1ncnc2nc[nH]c12)c1cc2cccc(Cl)c2c(=O)n1-c1ccccc1` [Duvelisib, reference compound], the concentration for half-maximal inhibition (IC50) with MV4:11 cells was 4400 nM; with Molm14 cells, 1200 nM; in the experiment on MOLT4 cells it was 2300 nM; in experiment [1], above 10000 nM; in the experiment on Loucy cells, 980 nM; in the experiment on Jurkat cells it was 1900 nM. For the same compound, the “inhibition of PI3K-δ signaling (AKT and S6RP phosphorylation)” value in [2] is given as “the most potent PI3K-δ inhibitor”. At PI3K-δ (FIG. 4B), the “potency in the PI3K-δ assay compared with clinical compounds” value was “the most potent”.
For `Cc1ccc2c(c1)C(=O)N(C)c1cnc(Nc3ccc(S(=O)(=O)N4CCC(O)CC4)cc3)nc1N2C` [Compound 13, 2-((4-((4-hydroxypiperidin-1-yl)sulfonyl)phenyl)amino)-5,8,11-trimethyl-5,11-dihydro-6H-benzo[e]pyrimido[5,4-b][1,4]diazepin-6-one], the figures for the IC50 against PI3K-δ and at PI3K-γ were 58 nM and 41 nM, respectively.
As for `C=CC(=O)Nc1ccc(NS(=O)(=O)c2cccc(Nc3ncc4c(n3)N(C)c3ccc(C)cc3C(=O)N4C)c2)cc1` [Compound 5, N-(4-((3-((5,8,11-trimethyl-6-oxo-6,11-dihydro-5H-benzo[e]pyrimido[5,4-b][1,4]diazepin-2-yl)amino)phenyl)sulfonamido)phenyl)acrylamide], the IC50 against PI3K-β is above 10000 nM; against PI3K-α, 728 nM; against Aurora B, 290 nM; against Aurora A it was 272 nM; at PI3K-δ it was 15 nM; on PI3K-γ, 29.3 nM.
